The values that follow come from paper PMC9226124, “Macrocycle-stabilization of its interaction with 14-3-3 increases plasma membrane localization and activity of CFTR” (Nature Communications, 2022).

For assay [1], the target named is T1, 3HA-tagged F508del-CFTR in BHK cells (Homo sapiens, UniProt P13569, DEL508-508).
T1 construct: expressed in transfected cells; host or cells: baby hamster kidney (BHK) cells (Carlile et al. 2007)
Kind of assay: CFTR trafficking assay (surface expression). Type of assay: cell-based, hamster. The conditions noted are these: for F508del-CFTR surface expression signal (Fig5a): individual replicates; for F508del-CFTR trafficking towards the plasma membrane: BHK cells, 24 h, 10 μM compound. As for the experimental part: Twelve (12) validated hit compounds from the initial screening and focused validation library were tested for their effect on F508del-CFTR trafficking. Baby hamster kidney (BHK) cells expressing 3HA-tagged F508del-CFTR were treated for 24 h with 10 μM compound. After fixation of the cells, a combination of mouse monoclonal anti-HA antibody and anti-mouse IgG conjugated with FITC was used to detect F508del-CFTR that had trafficked to the plasma membrane as described previously. […] Additionally, a fluorescence imaging plate reader (FLIPR) Membrane Potential (FMP) assay was performed. This assay measures real-time membrane potential changes associated with ion channel activation and ion transporter proteins. F508del-CFTR expressing BHK cells were incubated for 24 h with 20 μM compound before treatment with the potentiator genistein, FMP dye, and activator forskolin. The fluorescence intensity is thus a measure for the function of the CFTR protein in the plasma membrane of these cells. The F508del-CFTR corrector VX-809 (lumacaftor) and the triple combination Trikafta® were used as positive controls in this assay. […] Another cellular assay was performed with the Ussing Chamber, which detects and quantifies transport of ions across epithelial tissue. F508del-CFTR expressing cystic fibrosis epithelial (CFBE) cells were treated for 18 h with 20 μM CY007424. After forskolin and genistein stimulation, the short-circuit current of the cells was measured.
Fig. 5 Cellular activity of macrocycles stabilizing the 14-3-3/CFTR PPI. a Surface expression of 3HA-tagged F508del-CFTR in BHK cells incubated for 24 h with 10 μM compound and treated with mouse monoclonal anti-HA antibody and anti-mouse IgG conjugated with FITC (n = 4 or n = 3 biological replicates, bars represent the mean). b, c FLIPR Membrane Potential (FMP) assay of F508del-CFTR expressing BHK cells treated for 24 h with the macrocycles (b, n = 6 biological replicates, bars represent the mean) or with CY007424 and/or VX-809 or Trikafta®, with and without CFTR inhibitor INH172 (c, n = 4 biological replicates, bars represent the mean). d Using chamber experiment of F508del-CFTR expressing CFBE cells treated for 18 h with CY007424, VX-809, or Trikafta® or in combinations. CFTR activity is assayed by measurement of short-circuit current of cells after stimulation by forskolin and the potentiator genistein (n = 3 or n = 6 biological replicates, bars represent the mean). Source data are provided as a Source Data file.
The trafficking assay was performed as previously described by Carlile et al.[21]. In brief, 3HA-tagged F508del-CFTR expressing baby hamster kidney (BHK) cells (cells earlier described by Carlile et. al. 2007)[21] were seeded in 96-well plates (Corning half area, black-sided, clear bottom) at 15,000 cells per well. After 24 h incubation at 37 °C, the cells were treated with 10 μM of compound for 24 h (final DMSO concentration 1% v/v). The cells were fixated with 4% paraformaldehyde, washed with PBS, and then blocked with fetal bovine serum (5% in PBS). Mouse monoclonal anti-HA antibody (H9658 Sigma, 1:150 dilution in PBS) was incubated overnight, and, after three washes with PBS, the background fluorescence was measured in a plate reader (488 nm excitation, 510 nm emission). The secondary antibody anti-mouse IgG conjugated with FITC (F5262 Sigma, 1:100 dilution in PBS) was incubated for 1 h, the cells were washed three times with PBS and analyzed in the plate reader again. Background fluorescence was subtracted from the signal, after which the signal was normalized to the DMSO control and wt-CFTR expressing cells.

Assay [2] concerns the target T2, 14-3-3/full-length CFTR interaction (Homo sapiens, UniProt P13569, DEL508-508).
T2 construct: expressed in transfected cells; host or cells: HEK 293 cells expressing F508del-CFTR (Carlile et al. 2015)
The assay is described as follows: Immunoprecipitation (pull-down) from HEK293 cells expressing F508del-CFTR. Type of assay: cell-based. The conditions noted are these: 24 h, 10 μM. The method, then: Background polarization was subtracted from all values, n = 3 technical replicates. g Immunoprecipitation study to show the effect of CY007424 on the interaction between of CFTR and 14-3-3 proteins. CFTR and separately 14-3-3 immunoprecipitation from HEK293 cells expressing F508del-CFTR after 24 h of CY007424 (10μM) (424) or vehicle alone (CON). LYS: cellular lysate prior to preclear, SUP: supernatant after specific bead incubation, PC: second preclear, LW: last wash after the immunoprecipitation IP are the specific antibody beads. IP, upper blot: probed with CFTR AB, lower blot: probed with 14-3-3 AB. Source data are provided as a Source Data file.
CFTR monoclonal-mAb (M3A7, ab270238 abcam) and 14-3-3 monoclonal-Rbt-Ab (Y62, ab32560 abcam) were separately covalently linked to Protein A–Sepharose (Pharmacia, NJ, U.S.A.) by cross-linking with dimethyl pimelimidate (DMP) utilizing standard procedures.
Briefly, Protein A–Sepharose beads were washed two times in 0.2 M sodium borate, pH 9.0 for 5 min each. The beads were then mixed with antibody (for 1 mL of beads use 0.5 mg of antibody). These were placed on a rotator and mixed continuously for 2 h at room temperature (RT). The beads were washed with sodium borate twice, followed by one wash with 0.2 M triethanolamine, pH 8.5. An equal volume of 40 mM DMP in 0.2 M triethanolamine was added. The mixture was mixed for 1 h at RT and the beads then collected. The beads were incubated in 0.2 M ethanolamine, pH 8.2 for 5 min at RT. Beads were washed with the sodium borate solution, and stored at 4 °C until use. Beads were rinsed in lysis buffer before use.
Once HEK 293 cells expressing F508del-CFTR (cells earlier described by Carlile et al. 2015)[29] were treated, they were harvested and immunoprecipitated as follows. Cells were washed twice in sterile TBS, trypsin-treated and transferred to a Falcon tube with media and sera and centrifuged at 800 g at RT for 5 min. Pellets were washed twice in TBS prewarmed to 37 °C and centrifuged at 800–1000 g for 5 min at 4 °C. […]

Values joined by “and” are separate entries in the source; they are usually repeats but may differ in a detail not shown here. Equal values may be shown once. “Also recorded” adds a separate entry of the source.

T1 sequence (P13569 with tags, fused parts or gaps DEL508-508): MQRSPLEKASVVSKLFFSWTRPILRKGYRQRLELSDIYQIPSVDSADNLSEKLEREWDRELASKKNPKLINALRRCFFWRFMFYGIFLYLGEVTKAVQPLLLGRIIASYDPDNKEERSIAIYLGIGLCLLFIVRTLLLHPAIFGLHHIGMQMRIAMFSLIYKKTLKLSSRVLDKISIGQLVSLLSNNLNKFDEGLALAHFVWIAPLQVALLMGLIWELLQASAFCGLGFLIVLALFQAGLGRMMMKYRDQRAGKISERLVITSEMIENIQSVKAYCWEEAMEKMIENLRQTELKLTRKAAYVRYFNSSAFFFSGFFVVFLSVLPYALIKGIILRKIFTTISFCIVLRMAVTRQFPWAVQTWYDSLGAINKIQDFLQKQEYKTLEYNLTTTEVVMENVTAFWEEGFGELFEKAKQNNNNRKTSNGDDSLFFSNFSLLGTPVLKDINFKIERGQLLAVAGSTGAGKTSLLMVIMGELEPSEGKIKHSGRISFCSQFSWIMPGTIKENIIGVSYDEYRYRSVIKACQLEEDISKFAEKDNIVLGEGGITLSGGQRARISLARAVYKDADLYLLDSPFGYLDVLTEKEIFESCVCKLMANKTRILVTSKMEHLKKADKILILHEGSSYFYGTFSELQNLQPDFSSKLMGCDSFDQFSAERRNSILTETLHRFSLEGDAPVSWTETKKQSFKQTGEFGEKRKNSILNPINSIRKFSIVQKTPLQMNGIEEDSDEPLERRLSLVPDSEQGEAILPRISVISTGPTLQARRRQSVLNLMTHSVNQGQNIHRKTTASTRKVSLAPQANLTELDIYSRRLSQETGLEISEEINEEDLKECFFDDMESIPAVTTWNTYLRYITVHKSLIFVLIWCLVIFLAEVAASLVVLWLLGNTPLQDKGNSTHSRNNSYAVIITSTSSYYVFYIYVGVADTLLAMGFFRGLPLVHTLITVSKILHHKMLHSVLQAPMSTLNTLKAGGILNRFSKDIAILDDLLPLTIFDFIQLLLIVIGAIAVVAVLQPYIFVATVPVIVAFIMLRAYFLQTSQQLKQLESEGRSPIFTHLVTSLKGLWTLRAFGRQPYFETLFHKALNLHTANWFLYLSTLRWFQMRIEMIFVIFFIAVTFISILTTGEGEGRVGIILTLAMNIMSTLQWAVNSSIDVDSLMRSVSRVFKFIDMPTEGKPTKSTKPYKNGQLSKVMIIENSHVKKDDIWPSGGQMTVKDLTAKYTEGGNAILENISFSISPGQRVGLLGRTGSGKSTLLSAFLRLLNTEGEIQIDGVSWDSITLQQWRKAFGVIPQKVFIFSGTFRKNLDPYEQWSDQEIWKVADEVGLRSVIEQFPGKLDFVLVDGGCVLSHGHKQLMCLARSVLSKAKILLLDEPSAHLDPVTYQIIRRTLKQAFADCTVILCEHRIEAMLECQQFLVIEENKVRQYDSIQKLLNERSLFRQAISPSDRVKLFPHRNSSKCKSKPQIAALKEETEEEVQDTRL
T2 sequence (P13569 with tags, fused parts or gaps DEL508-508): as above

`C=CC(C)(C)OC[C@H]1O[C@H](O[C@@H]2C3=C([C@H](C)COC(C)=O)C[C@H](O)[C@]3(C)/C=C3/[C@@H](COC)CC[C@H]3[C@@H](C)[C@H]2O)[C@H](O)[C@@H](OC(C)=O)[C@@H]1O` [FC-A, fusicoccin A, reference compound]: the “F508del-CFTR surface expression signal (Fig5a)” value in assay [1] was 1016.54 and 1064.51 and 1045.89.

For the molecule `CC1NC(=O)C(CCCNC(=N)N)NC(=O)C2CCCN2Cc2cccc(c2)-c2ccccc2CNC(=O)C(CCCNC(=N)N)NC1=O` (centres unmarked) [CY007476], the “stabilizing effect on the 14-3-3/CFTR interaction in cells (pull-down)” value (“stabilizing effect” below) in assay [2] is recorded as “did not show a stabilizing effect; also recorded: did not enhance binding of 14-3-3”. In assay [1], the “F508del-CFTR trafficking towards the plasma membrane” value is on record as “increase of F508del-CFTR trafficking towards the plasma membrane”; the “F508del-CFTR surface expression signal (Fig5a)” value was 1288.45 and 1177.16 and 1241.43 and 1259.33.

On to `CN1CC(=O)NC(CCCNC(=N)N)C(=O)NC(CCC(N)=O)C(=O)NC(CCCNC(=N)N)C(=O)NCc2ccccc2-c2cccc(c2)C1` (centres unmarked) [CY007491], for which the “stabilizing effect” value in assay [2] was “did not show a stabilizing effect; also recorded: did not enhance binding of 14-3-3”. In addition, in assay [1], the “F508del-CFTR trafficking towards the plasma membrane” value is “increase of F508del-CFTR trafficking towards the plasma membrane”; the “F508del-CFTR surface expression signal (Fig5a)” value is 1616.06 and 1494.72 and 1508.75 and 1545.64.

`N=C(N)NCCCC1NC(=O)C(CCC(N)=O)NC(=O)C(CCCNC(=N)N)NC(=O)C2CCCN2Cc2cccc(c2)-c2ccccc2CNC1=O` (centres unmarked) [CY007455]: in assay [1], the “F508del-CFTR surface expression signal (Fig5a)” value was 15.0857 and 101.743 and 158.532 and 44.3829.

In the case of `N=C(N)NCCCC1NCc2ccccc2Sc2ccccc2CNC(=O)C(Cc2ccc(O)cc2)NC(=O)C(CCCN)NC1=O` (centres unmarked) [CY007424], in assay [2], the “stabilizing effect” value is recorded as “stabilizing effect; also recorded: increased CFTR binding to 14-3-3”. Besides, in assay [1], the “F508del-CFTR trafficking towards the plasma membrane” value is listed as “strongest increase”; the “F508del-CFTR surface expression signal (Fig5a)” value was 1698.78 and 1774.35 and 1725.92 and 1889.17.

Take `N=C(N)NCCCC1NC(=O)C(CCCCN)NCc2ccccc2Sc2ccccc2CNC(=O)C(Cc2ccc(O)cc2)NC1=O` (centres unmarked) [CY001951]: the “F508del-CFTR surface expression signal (Fig5a)” value in assay [1] was 85.2534 and 218.237 and 180.048 and 282.523.

Take `NCCCCC1NCc2ccccc2Sc2ccccc2CNC(=O)C(Cc2cccc(Cl)c2)NC(=O)C(Cc2ccc(O)cc2)NC1=O` (centres unmarked) [CY007288]: the “F508del-CFTR surface expression signal (Fig5a)” value in assay [1] is 916.74 and 800.091 and 871.094 and 781.005.

Regarding `N=C(N)NCCCC1NC(=O)C(CCC(N)=O)NC(=O)C(CCCNC(=N)N)NC(=O)C2Cc3ccccc3CN2Cc2cccc(c2)-c2ccccc2CNC1=O` (centres unmarked) [CY007493], the “F508del-CFTR surface expression signal (Fig5a)” value in assay [1] is 225.716 and 325.901 and 303.406 and 383.168.

As for `N=C(N)NCCCC1NC(=O)C(CCC(N)=O)NC(=O)C(CCCNC(=N)N)NC(=O)C2CCCN2Cc2cccc(c2)-c2ccccc2CNC1=O` (centres unmarked) [CY007458], the “F508del-CFTR surface expression signal (Fig5a)” value in assay [1] was 354.117 and 244.376 and 379.817 and 293.603.

`N=C(N)NCCCC1NC(=O)C(CCC(N)=O)NC(=O)C(CCCNC(=N)N)NC(=O)C2CCCN2Cc2ccccc2Sc2ccccc2CNC1=O` (centres unmarked) [CY007502]: the “F508del-CFTR surface expression signal (Fig5a)” value in assay [1] was 344.243 and 408.371 and 366.875 and 405.395.

On to `NCCCC1NCc2ccccc2Sc2ccccc2CNC(=O)C(Cc2c[nH]c3ccccc23)NC(=O)C(Cc2ccccc2)NC1=O` (centres unmarked) [CY007345], for which the “F508del-CFTR surface expression signal (Fig5a)” value in assay [1] was -42.2555 and -20.6074 and 61.7766 and 72.7311.
